Laboratory results reported in patent US11197479B2, “Use of silthiofam for the treatment of soybean rust” (priority 2018, dated 2021).
Values joined by “and” are separate entries in the source; they are usually repeats but may differ in a detail not shown here. Equal values may be shown once.

Assays:
[1] = system: soybean rust disease; test: Field trial: efficacy on naturally infected soybean, visual estimation of degree of infection on leaves; assay type: in vivo, Glycine max
Description: (§1) In the tables presented below, the following terms have the following meaning:
Field trial was conducted to evaluate the effect and efficacy of silthiofam on soybean rust disease on soybean (Glycine max) wherein plants were naturally infected by the disease.
The trial was divided in the following […]:
one treatment where plants were left untreated and in which natural progression of the disease can be observed;
two treatments with silthiofam alone in different dosage amounts;
and four treatments where silthiofam was applied with other compounds, namely tagatose and chitosan in different dosage ratios.
Each treatment was applied on a plot of 6 ft*30 ft in size and was repeated in 4 replicates.
(§2) Silthiofam compositions used in this trial were prepared from the suspension concentrate containing 125 g/L of silthiofam, diluted with water to predetermined concentration and sprayed on the plants in the predetermined amounts.
For each treatment, two applications of respective treatment were made with 19 days interval between. First application was made when soybean plant reached stage BBCH 64, and the second one when plant reached stage BBCH 73. Growth stages were defined according to Compendium of Growth Stage Identification Keys for Mono- and Dicotyledonous Plants, Extended BBCH scale, 2nd Edition 1997, ISBN 3-9520749-3-4.
(§3) Method used for evaluation of disease spread was visual estimation of degree of infection on leaves.

[2] = system: Phakopsora pachyrhizi; test: Glasshouse pot trial: efficacy on soybean rust on soybean (Glycine max), visual estimation of degree of infection on leaves; assay type: in vivo
Description: as §1
Glasshouse pot trials were conducted to evaluate the effect and efficacy of silthiofam on soybean rust disease on soybean (Glycine max).
The trial was divided in 11 treatments. In 4 of the treatments, silthiofam was applied in different amounts.
as §2
In two of the treatments, silthiofam was applied in combination with additional ingredients.
First combination was of silthiofam and chitosan, wherein silthiofam was applied in an amount of 250 g/ha on the plant first and chitosan was applied subsequently in an amount of 200 g/ha.
Second combination was a combination of silthiofam and tagatose, wherein silthiofam was applied in an amount of 250 g/ha simultaneously with tagatose in an amount of 200 g/ha.
Further 6 treatments were current market available treatments of soybean rust applied in the label prescribed dose, wherein the compositions used were prepared from commercially available products prepared according to the respective label instructions and sprayed on the plants.
One treatment of the trial consisted of fungi inoculated plants which received no treatment.
Soybean plants were treated two times with silthiofam and other treatments. First treatment was applied when soybean plants reached stage BBCH16 and the second treatment was applied when soybean plants reached stage BBCH61. Growth stages were defined according to Compendium of Growth Stage Identification Keys for Mono- and Dicotyledonous Plants, Extended BBCH scale, 2nd Edition 1997, ISBN 3-9520749-3-4.
After silthiofam and other treatments were applied first time, plants were inoculated with Phakopsora pachyrhizi spores and evaluation of leaves condition and disease spread was done every 7 days.
as §3
The experimental design of the pot trial was randomized design with 4 pot replications per treatment applied, wherein six soybean plants were planted per pot.
Treatments were the following:
Treatment 1: Plant inoculated with P. pachyrhizi, no treatment applied
Treatment 2: Treatment with flutriafol and azoxystrobin mixture, applied in concentration of 31.25 g flutriafol/ha and 37.5 g azoxystrobin/ha
Treatment 3: Silthiofam treatment applied in 250 g silthiofam/ha
Treatment 4: Silthiofam treatment applied in 500 g silthiofam/ha
Treatment 5: Silthiofam treatment applied in 250 g silthiofam/ha and 200 g/ha of tagatose
Treatment 6: Silthiofam treatment applied in 250 g silthiofam/ha and 200 g/ha of chitosan
Treatment 7: Mancozeb applied in 1.68 kg mancozeb/ha
Treatment 8: Chlorothalonil applied in 626.4 g chlorothalonil/ha
Treatment 9: Azoxystrobin applied in 37.5 g azoxystrobin/ha
Treatment 10: Boscalid applied in 294 g boscalid/ha
Treatment 11: Prothioconazole and tebuconazole mixture applied as 42 g prothioconazole/ha and 84 g tebuconazole/ha

[3] = system: Phakopsora pachyrhizi; test: as above; assay type: in vivo; details: general statement; Phakopsora pachyrhizi and P. meibomiae

SMILES: C=CCNC(=O)c1c([Si](C)(C)C)sc(C)c1C [Silthiofam, N-allyl-4,5-dimethyl-2-(trimethylsilyl)thiophene-3-carboxamide]
- % efficacy ([1]; silthiofam 125 g/ha, 14/14 d after first/last application, LEALOW): 88.9% and 84.3% and 63.4% and 77.3%
- % efficacy ([1]; silthiofam 125 g/ha, 14/14 d after first/last application, LEAMID): 95.5% and 92.9% and 95.0% and 90.9%
- % efficacy ([1]; silthiofam 125 g/ha, 14/14 d after first/last application, LEAUPP): 0.0%
- % efficacy ([1]; silthiofam 125 g/ha, 20/1 d after first/last application, LEALOW): 68.2% and 56.0% and 64.1% and 69.1%
- % efficacy ([1]; silthiofam 125 g/ha, 20/1 d after first/last application, LEAMID): 83.3% and 78.2% and 80.4%
- % efficacy ([1]; silthiofam 125 g/ha, 20/1 d after first/last application, LEAUPP): 90.9% and 88.9% and 100.0% and 94.4%
- % efficacy ([1]; silthiofam 125 g/ha, 27/8 d after first/last application, LEALOW): 35.00% and 42.00% and 36.00%
- % efficacy ([1]; silthiofam 125 g/ha, 27/8 d after first/last application, LEAMID): 77.9% and 75.0% and 78.6% and 80.3%
- % efficacy ([1]; silthiofam 125 g/ha, 27/8 d after first/last application, LEAUPP): 89.3% and 85.7% and 93.3% and 95.2%
- % efficacy ([1]; silthiofam 125 g/ha, 34/15 d after first/last application, LEALOW): 45.0% and 35.0% and 52.0% and 55.0%
- % efficacy ([1]; silthiofam 125 g/ha, 34/15 d after first/last application, LEAMID): 72.0% and 67.0% and 72.7%
- % efficacy ([1]; silthiofam 125 g/ha, 34/15 d after first/last application, LEAUPP): 90.9% and 86.2% and 92.2%
- % efficacy ([1]; silthiofam 250 g/ha, 14/14 d after first/last application, LEALOW): 66.7% and 56.9% and 73.2% and 59.1%
- % efficacy ([1]; silthiofam 250 g/ha, 14/14 d after first/last application, LEAMID): 81.8% and 78.6% and 70.0% and 63.6%
- % efficacy ([1]; silthiofam 250 g/ha, 14/14 d after first/last application, LEAUPP): 0.0%
- % efficacy ([1]; silthiofam 250 g/ha, 20/1 d after first/last application, LEALOW): 60.2% and 45.3% and 57.7% and 65.4%
- % efficacy ([1]; silthiofam 250 g/ha, 20/1 d after first/last application, LEAMID): 68.8% and 67.3% and 78.4%
- % efficacy ([1]; silthiofam 250 g/ha, 20/1 d after first/last application, LEAUPP): 81.8% and 83.3% and 90.0% and 100.0%
- % efficacy ([1]; silthiofam 250 g/ha, 27/8 d after first/last application, LEALOW): 55.00% and 65.00% and 58.00% and 48.00%
- % efficacy ([1]; silthiofam 250 g/ha, 27/8 d after first/last application, LEAMID): 61.8% and 61.1% and 68.6% and 62.1%
- % efficacy ([1]; silthiofam 250 g/ha, 27/8 d after first/last application, LEAUPP): 82.1% and 77.1% and 83.3% and 88.1%
- % efficacy ([1]; silthiofam 250 g/ha, 34/15 d after first/last application, LEALOW): 25.0% and 22.0% and 30.0% and 35.0%
- % efficacy ([1]; silthiofam 250 g/ha, 34/15 d after first/last application, LEAMID): 62.0% and 58.0% and 56.8%
- % efficacy ([1]; silthiofam 250 g/ha, 34/15 d after first/last application, LEAUPP): 67.3% and 62.1% and 54.5% and 57.8%
- % efficacy ([2]; silthiofam 250 g/ha, 7/7 d after first/last application, 19 d after planting, LEALOW): 71.5% and 90.9% and 93.6% and 88.9%
- % efficacy ([2]; silthiofam 250 g/ha, 7/7 d after first/last application, 19 d after planting, LEAMID): 93.4% and 100.0% and 81.9% and 85.0%
- % efficacy ([2]; silthiofam 250 g/ha, 7/7 d after first/last application, 19 d after planting, LEAUPP): 100.0%
- % efficacy ([2]; silthiofam 250 g/ha, 14/14 d after first/last application, 26 d after planting, LEALOW): 89.0% and 82.0% and 84.7% and 84.1%
- % efficacy ([2]; silthiofam 250 g/ha, 14/14 d after first/last application, 26 d after planting, LEAMID): 95.0% and 91.2% and 92.0% and 89.4%
- % efficacy ([2]; silthiofam 250 g/ha, 14/14 d after first/last application, 26 d after planting, LEAUPP): 100.0%
- % efficacy ([2]; silthiofam 250 g/ha, 21/21 d after first/last application, 33 d after planting, LEALOW): 78.0% and 76.0% and 82.0% and 80.0%
- % efficacy ([2]; silthiofam 250 g/ha, 21/21 d after first/last application, 33 d after planting, LEAMID): 92.0% and 89.0% and 90.0% and 88.0%
- % efficacy ([2]; silthiofam 250 g/ha, 21/21 d after first/last application, 33 d after planting, LEAUPP): 100.0%
- % efficacy ([2]; silthiofam 250 g/ha, 28/7 d after first/last application, 40 d after planting, LEALOW): 82.0% and 80.0% and 84.0%
- % efficacy ([2]; silthiofam 250 g/ha, 28/7 d after first/last application, 40 d after planting, LEAMID): 92.0% and 88.0% and 90.0%
- % efficacy ([2]; silthiofam 250 g/ha, 28/7 d after first/last application, 40 d after planting, LEAUPP): 100.0%
- % efficacy ([2]; silthiofam 250 g/ha, 35/14 d after first/last application, 47 d after planting, LEAMID): 78.0% and 82.0% and 80.0% and 84.0%
- % efficacy ([2]; silthiofam 250 g/ha, 35/14 d after first/last application, 47 d after planting, LEAUPP): 94.5% and 98.0% and 95.5% and 92.9%
- % efficacy ([2]; silthiofam 250 g/ha, 42/21 d after first/last application, 54 d after planting, LEAMID): 48.0% and 54.0% and 59.0% and 52.0%
- % efficacy ([2]; silthiofam 250 g/ha, 42/21 d after first/last application, 54 d after planting, LEAUPP): 86.0% and 85.0% and 89.0%
- % efficacy ([2]; silthiofam 500 g/ha, 7/7 d after first/last application, 19 d after planting, LEALOW): 85.8% and 95.5% and 93.6% and 97.3%
- % efficacy ([2]; silthiofam 500 g/ha, 7/7 d after first/last application, 19 d after planting, LEAMID): 93.4% and 94.5% and 100.0%
- % efficacy ([2]; silthiofam 500 g/ha, 7/7 d after first/last application, 19 d after planting, LEAUPP): 100.0%
- % efficacy ([2]; silthiofam 500 g/ha, 14/14 d after first/last application, 26 d after planting, LEALOW): 92.0% and 90.0% and 94.7% and 91.9%
- % efficacy ([2]; silthiofam 500 g/ha, 14/14 d after first/last application, 26 d after planting, LEAMID): 99.0% and 96.8% and 97.9%
- % efficacy ([2]; silthiofam 500 g/ha, 14/14 d after first/last application, 26 d after planting, LEAUPP): 100.0%
- % efficacy ([2]; silthiofam 500 g/ha, 21/21 d after first/last application, 33 d after planting, LEALOW): 89.0% and 86.0% and 92.0%
- % efficacy ([2]; silthiofam 500 g/ha, 21/21 d after first/last application, 33 d after planting, LEAMID): 96.0% and 95.0% and 97.0%
- % efficacy ([2]; silthiofam 500 g/ha, 21/21 d after first/last application, 33 d after planting, LEAUPP): 100.0%
- % efficacy ([2]; silthiofam 500 g/ha, 28/7 d after first/last application, 40 d after planting, LEALOW): 88.0% and 90.0% and 85.0%
- % efficacy ([2]; silthiofam 500 g/ha, 28/7 d after first/last application, 40 d after planting, LEAMID): 95.0% and 93.0% and 92.0%
- % efficacy ([2]; silthiofam 500 g/ha, 28/7 d after first/last application, 40 d after planting, LEAUPP): 100.0%
- % efficacy ([2]; silthiofam 500 g/ha, 35/14 d after first/last application, 47 d after planting, LEAMID): 92.0% and 89.0% and 90.0% and 86.0%
- % efficacy ([2]; silthiofam 500 g/ha, 35/14 d after first/last application, 47 d after planting, LEAUPP): 98.9% and 100.0% and 90.9%
- % efficacy ([2]; silthiofam 500 g/ha, 42/21 d after first/last application, 54 d after planting, LEAMID): 79.0% and 72.0% and 80.0% and 82.0%
- % efficacy ([2]; silthiofam 500 g/ha, 42/21 d after first/last application, 54 d after planting, LEAUPP): 92.0% and 90.0% and 95.0% and 93.0%
- activity against soybean rust causing fungi [3]: high activity
